# Legend:
# [1] = test system: HCT116^MTAP Deletion cells; test: Anti-proliferation assay on cells (Cell-Titer Glo, 10 days); assay type: cell-based; conditions: HCT116^MTAP Deletion cells, 10 days incubation, CTG readout; read-out: HCT116^MTAP Deletion GI50
# Outline: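 HCT116^MTAP Deletion cells seeded at 50 cells/well and exposed to 10-point 3-fold compound dilutions in duplicate (0.1% DMSO) for 10 days at 37 °C. Viability read by CellTiter-Glo luminescence; IC50 derived from GI50 curves of concentration versus inhibition.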
# HCT116 cells = test: as above; assay type: cell-based; conditions: ratio of GI50 values
# Method: Assay example 1: Method of anti-proliferation assay on cells
# HCT116^MTAP Deletion cells were from Pharmaron (China); HCT116 cells were from ATCC; McCoy's 5A medium was purchased from Invitrogen (USA); penicillin-streptomycin and fetal bovine serum were purchased from Gibco (USA); a 384-well plate was purchased from PerkinElmer (USA); and Cell-Titer Glo reagent was purchased from Promega (USA).
# Compound dissolution: All the compounds were dissolved in dimethyl sulfoxide (DMSO) and then stored. The compounds were stored at room temperature in a dry condition for 3 months for short term storage or at -20 °C for long term storage.
# Cell culture and passaging
# (§1) The cells were cultured strictly in accordance with ATCC requirements. The cell culture medium (McCoy's 5A medium + 10% fetal bovine serum + 1% penicillin + streptomycin) was transferred to a 15 mL centrifuge tube and centrifuged at 1000 rpm for 5 min. The supernatant was removed. The cells were resuspended with complete culture medium, inoculated into a culture dish at the required density, and cultured in an incubator at 37 °C, 95% humid air, and 5% carbon dioxide. The culture medium was replenished or the cells were passaged every 2-3 days depending on the cell growth condition.
# Cell proliferation activity assay
# When the confluency of cells in the culture dish reached about 90%, the cells were washed twice with PBS, and then treated with trypsin to become single cells. The cells were counted, and 40µl of the cells was inoculated into each well of a 384-well plate (50 cells/well). The plate was equilibrated at 37 °C and 5% carbon dioxide for 10 to 15 minutes. The compounds were injected into the 384-well plate using Echo550, and positive control and negative control (0.1% DMSO) were set up. Each compound was subjected to a 3-fold dilution, resulting in 10 concentration gradients, in duplicate, and the content of DMSO was 0.1%. The 384-well plate was incubated in a cell culture incubator for 10 days.
# Then, 40 µl of cell proliferation assay reagent (CTG) was added to the 384-well plate, and the plate was shaken to mix well. Then, the 384-well plate was incubated at 37 °C and 5% carbon dioxide in the dark for 30 minutes. The data were read using the Envision multifunctional microplate reader. […] According to the different drug concentrations and their corresponding inhibition rates, the GI50 curve was drawn using GraphPad 8.0 software. The data were analyzed, and the final IC50 value was obtained.
# In addition, the compounds of the present disclosure also have selectivity for mutant HCT116 cells. […] The selectivity data of representative compounds are shown in Table 2: Table 2 Selectivity data of representative compounds
# [2] = test system: SDMA in HCT116^MTAP Deletion; test: In-Cell Western Assay of cellular SDMA; assay type: cell-based; conditions: HCT116^MTAP Deletion cells, 96 hours; read-out: SDMA inhibition IC50 (µM) in HCT116^MTAP Deletion
# Method: (§2) Compound dissolution: All the compounds were dissolved in dimethyl sulfoxide (DMSO) and then stored. The compounds were stored at -20°C for long term storage.
# (§3) 2.3 Cell culture and passaging
# as §1, with “The cell culture medium (McCoy's 5A medium + 10% fetal bovine serum + 1% penicillin + streptomycin) was transferred to a 15 mL centrifuge tube and centrifuged at 1000 rpm for 5 min.” left out
# 2.4 In-Cell Western Assay of SDMA
# When the confluency of cells in the culture dish reached about 90%, the cells were washed twice with PBS, and then digested with trypsin. 100 µl of the cells was inoculated into each well of a 96-well plate (800 cells/well). The plate was incubated overnight in a 37 °C and 5% CO2 incubator. 50 µL of 3x final concentration of a compound was added to the cell culture plate. Each compound was subjected to a 3-fold dilution, resulting in 10 concentration gradients, in duplicate, and the final concentration of DMSO was 0.5%. The plate was incubated in a 37 °C and 5% CO2 incubator for 96 hours.
# 150µL of 8% paraformaldehyde was added to each well, and the plate was incubated at room temperature for 15 minutes. The supernatant was discarded. The plate was washed with PBS, and 200µL of freshly prepared 1x Permeabilization buffer was added to each well. The plate was incubated at room temperature for 30 minutes. The supernatant was discarded. 200µL of 1x Blocking buffer was added to each well, and the plate was incubated at room temperature for 2 hours. The supernatant was discarded. 50µL of primary antibody (CST, 1x Incubation buffer 1:500 dilution) was added to each well, and the plate was incubated at 4°C overnight. The supernatant was discarded. 250µL of 1x Washing buffer was added to each well, and the plate was washed three times. 50µL of secondary antibody (IRDye 800CW Goat anti-Rabbit IgG and CellTag 700 dye, 1:800 and 1:500 diluted in Incubation buffer) was added to each well, and the plate was incubated at room temperature for 1 hour. The supernatant was discarded. The plate was washed with 1x Washing buffer. Signals were detected using Licor Odyssey CLX. […] According to the different drug concentrations and their corresponding inhibition rates, the IC50 curve was drawn using GraphPad 8.0 software. The data were analyzed, and the final IC50 value was obtained. […] Table 3 Inhibitory activity on cellular SDMA
# SDMA in HCT116 = test: In-Cell Western Assay of cellular SDMA; assay type: cell-based; conditions: HCT116 cells, 96 hours; read-out: SDMA inhibition IC50 (µM) in HCT116
# Text: Assay example 2: Method of In-Cell Western Assay of cellular SDMA
# HCT116^MTAP Deletion cells were from Horizon; HCT116 cells were from ATCC; RPMI-1640 medium was purchased from ATCC (USA); penicillin-streptomycin was purchased from Gibco (USA); fetal bovine serum was purchased from ExCell; 96-well plate was purchased from Corning (USA); Symmetric Di-Methyl Arginine Motif [sdme-RG] antibody was purchased from CST (USA); IRDye 800CW Goat anti-Rabbit IgG secondary antibody was purchased from LI-COR (USA), and CellTag 700 stain was purchased from LI-COR (USA).
# as §2, §3
# The cells were cultured strictly in accordance with ATCC requirements. The cell culture medium (RPMI-1640 medium + 10% serum + 1% penicillin + streptomycin) was transferred to a 15 mL centrifuge tube and centrifuged at 1000 rpm for 5 min. The supernatant was removed. […]
# 150µL of 8% paraformaldehyde was added to each well, and the plate was incubated at room temperature for 15 minutes. […] Signals were detected using Licor Odyssey CLX. […] The data were analyzed, and the final IC50 value was obtained. […]
# [3] = Brain permeability in CD1 mice after oral gavage administration; assay type: in vivo, Mouse/CD1/Male; set-up: unit not given here; conditions: 30 mg/kg PO, 0.25-8 hours
# Method: Assay example 4 Investigation of brain permeability in CD1 mice after oral gavage administration
# 4.1.1 Information of administration
# 4.1.3 Collection and processing of blood sample
# 4.1.4 Evaluation during the in vivo experiment
# 4.2 Test sample and preparation
# 4.2.1 Information of test sample
# All the samples were analyzed by LC-MS/MS, and the concentration of the drug to be tested in the samples was determined by the standard curve method.
# For the plasma assay results, the pharmacokinetic parameters were calculated using WinNonlin (Phoenix™) or other similar software.
SMILES,GI50 [1],Selectivity multiple of HCT116^MTAP WT GI50/ HCT116^MTAP Deletion GI50 (HCT116 cells),IC50 [2],IC50 (SDMA in HCT116),Brain AUClast/D ([3]; brain),CSF AUClast/D ([3]; cerebrospinal fluid),Plasma AUClast/D ([3]; plasma)
"CN(C(=O)C(=O)Nc1cnc(N)c2c1cnn2C)C1COCc2nc(C(F)(F)F)ccc21 (single isomer, unassigned) [Example 152-P2]",< 10 nM,,0.01 to 0.1 µM,,,,
C[C@H](c1ncccn1)N(Cc1ccc(C(F)(F)F)cn1)C(=O)C(=O)Nc1cnc(N)c2c1COC2 [Example 2],10 to 100 nM,,< 0.01 µM,,,,
Cc1ncc(-c2ccc3c(c2)COCC3N(C)C(=O)C(=O)Nc2cnc(N)c3c2cnn3C)s1 (centres unmarked) [Example 135],< 10 nM,285,< 0.01 µM,,,,
CN(C(=O)C(=O)Nc1cnc(N)c2c1cnn2C)C1COCc2cc(-c3ccnn3C)ccc21 (centres unmarked) [Example 156-P1],,,< 0.01 µM,,,,
CN(C(=O)C(=O)Nc1cnc(N)c2c1cnn2C)C1COc2cc(-c3ccnn3C)ccc21 (centres unmarked) [Example 192-P1],,252,< 0.01 µM,,,,

# Results, then the compound that gave them:
GI50 [1],Selectivity multiple of HCT116^MTAP WT GI50/ HCT116^MTAP Deletion GI50 (HCT116 cells),IC50 [2],IC50 (SDMA in HCT116),Brain AUClast/D ([3]; brain),CSF AUClast/D ([3]; cerebrospinal fluid),Plasma AUClast/D ([3]; plasma),SMILES
< 10 nM,385,< 0.01 µM,0.1 to 1 µM,428,6.15,464,"CN(C(=O)C(=O)Nc1cnc(N)c2c1cnn2C)C1COc2cc(C(F)(F)F)ccc21 (single isomer, unassigned) [Example 112-P1]"
< 10 nM,266,< 0.01 µM,,,,,CN(C(=O)C(=O)Nc1cnc(N)c2c1cnn2C)C1COCc2cc(C3=CCOCC3)ccc21 (centres unmarked) [Example 132-P1]

# Reference: patent publication EP4563571A1, “PRMT5 INHIBITORS” (Beijing Earthwise Technology Co., Ltd., priority 2022, dated 2024)
